Where two headings read alike, the source gives them in different places.
What was measured:
[1] = target: hepatic lipase (HL) (Homo sapiens (Human), UniProt P11150); test: HL assay: hepatic lipase activity with fluorescent substrate A10070 in DMPG vesicles; assay type: biochemical
Summary of the method: (§1)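 Substrate A10070 sits in sonicated DMPG vesicles at 0.11 mole fraction. Lipase and compound preincubated 30 min, 37° C, in HEPES pH 8.0 buffer with CaCl2.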

[2] = target: Endothelial lipase (EL) (Homo sapiens (Human), UniProt Q9Y5X9); test: EL assay: endothelial lipase activity with fluorescent substrate A10070 in DMPG vesicles; assay type: biochemical
Chain of Endothelial lipase (EL) (Q9Y5X9 21-500): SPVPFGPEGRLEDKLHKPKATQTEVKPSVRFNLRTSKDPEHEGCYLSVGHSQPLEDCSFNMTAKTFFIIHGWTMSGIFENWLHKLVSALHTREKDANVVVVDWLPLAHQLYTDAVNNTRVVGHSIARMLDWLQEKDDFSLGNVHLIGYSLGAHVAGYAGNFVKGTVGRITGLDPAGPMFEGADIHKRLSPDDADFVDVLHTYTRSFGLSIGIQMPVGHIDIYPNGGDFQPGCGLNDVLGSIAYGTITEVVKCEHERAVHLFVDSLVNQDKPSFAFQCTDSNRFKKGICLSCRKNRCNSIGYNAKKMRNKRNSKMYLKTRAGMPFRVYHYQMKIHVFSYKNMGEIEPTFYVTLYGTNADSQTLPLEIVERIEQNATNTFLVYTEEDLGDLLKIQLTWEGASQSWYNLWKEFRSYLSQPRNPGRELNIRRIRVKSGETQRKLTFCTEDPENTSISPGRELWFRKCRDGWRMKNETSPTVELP
Summary of the method: as §1

[3] = HL partially purified from conditioned media of COS cells, 30 min incubation with compound at 37° C., A10070/DMPG vesicles
[4] = EL from conditioned media of HT-1080 cells, 30 min incubation with compound at 37° C., A10070/DMPG vesicles

Chain of hepatic lipase (HL) (P11150 23-499, species assumed): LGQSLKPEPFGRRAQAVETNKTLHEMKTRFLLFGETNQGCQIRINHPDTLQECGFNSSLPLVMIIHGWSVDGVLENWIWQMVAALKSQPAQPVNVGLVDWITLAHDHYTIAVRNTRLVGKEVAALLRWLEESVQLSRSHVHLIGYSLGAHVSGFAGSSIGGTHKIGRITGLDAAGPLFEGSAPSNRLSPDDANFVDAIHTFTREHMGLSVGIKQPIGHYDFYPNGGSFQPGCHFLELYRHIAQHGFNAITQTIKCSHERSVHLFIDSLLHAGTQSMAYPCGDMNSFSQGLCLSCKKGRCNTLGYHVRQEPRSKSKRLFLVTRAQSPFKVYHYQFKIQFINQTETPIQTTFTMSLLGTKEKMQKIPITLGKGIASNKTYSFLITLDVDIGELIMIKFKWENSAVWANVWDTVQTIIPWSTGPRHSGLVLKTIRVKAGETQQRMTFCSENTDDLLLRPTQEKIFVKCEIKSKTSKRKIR

Row | SMILES | IC50 [1] [nM] | IC50 [2] [nM] | IC50 [1, 3] [nM] | IC50 [2, 4] [nM]
1 | Cn1ccc(-c2ccc3nc(C(C(=O)NCCS(N)(=O)=O)S(=O)(=O)Cc4ccc(C(F)(F)F)cc4)sc3c2)cc1=O (centres unmarked) [Example B364, 2-[6-(1-methyl-2-oxo-1,2-dihydropyridin-4-yl)-1,3-benzothiazol-2-yl]-N-(2-sulfamoylethyl)-2-{[4-(trifluoromethyl)phen-yl]methanesulfonyl}a-cetamide] | 10000 | 28.3 |  | 
2 | COCCn1ccc(-c2ccc3nc(C(C(=O)NCCS(N)(=O)=O)S(=O)(=O)Cc4ccc(C(F)(F)F)cc4)sc3c2)cc1=O (centres unmarked) [Example B367, 2-{6-[1-(2-methoxyethyl)-2-oxo-1,2-dihydropyridin-4-yl]-1,3-benzothiazol-2-yl}-N-(2-sulfamoylethyl)-2-{[4-(trifluoromethyl)phen-yl]methanesulfonyl}a-cetamide] | 2210 | 13.5 |  | 
3 | Cn1ccc(-c2ccc3nc(C(C(=O)NCCS(N)(=O)=O)S(=O)(=O)Cc4ccc(OC(F)(F)F)cc4)sc3c2)cc1=O (centres unmarked) [Example B368, 2-[6-(1-methyl-2-oxo-1,2-dihydropyridin-4-yl)-1,3-benzothiazol-2-yl]-N-(2-sulfamoylethyl)-2-{[4-(trifluoromethoxy)phen-yl]methanesulfonyl}a-cetamide] | 1600 | 15.8 |  | 
4 | CS(=O)(=O)C(C(=O)NCCS(N)(=O)=O)c1nc2cc(-c3ccnc(F)c3)ccc2s1 (centres unmarked) [Example B369, 2-[5-(2-fluoropyridin-4-yl)-1,3-benzothiazol-2-yl]-2-methanesulfonyl-N-(2-sulfamoylethyl)acetamide] | 414 | 1.5 |  | 
5 | NS(=O)(=O)CCNC(=O)C(c1nc2ccc(-c3ccnc(O)c3F)cc2s1)S(=O)(=O)CCC(F)(F)F (centres unmarked) [Example B375, 2-[6-(3-fluoro-2-hydroxy-pyridin-4-yl)-1,3-benzothiazol-2-yl]-N-(2-sulfamoylethyl)-2-(3,3,3-trifluoropropanesulfonyl)a-cetamide] | 787 | 14 |  | 
6 | Cn1nccc1-c1ccc2sc(C(C(=O)NCCS(N)(=O)=O)S(C)(=O)=O)nc2c1 (centres unmarked) [Example B384, 2-methanesulfonyl-2-[5-(1-methyl-1H-pyrazol-5-yl)-1,3-benzothiazol-2-yl]-N-(2-sulfamoylethyl)a-cetamide] | 828 | 8.2 |  | 
7 | CC(C)(O)Cn1ccc(-c2ccc3sc(C(C(=O)NCCS(N)(=O)=O)S(C)(=O)=O)nc3c2)cc1=O (centres unmarked) [Example B389, 2-{5-[1-(2-hydroxy-2-methylpropyl)-2-oxo-1,2-dihydropyridin-4-yl]-1,3-benzothiazol-2-yl}-2-methanesulfonyl-N-(2-sulfamoylethyl)acetamide] | 6300 | 2 |  | 
8 | CC(C)(O)Cn1cc(-c2ccc3sc(C(C(=O)NCCS(N)(=O)=O)S(C)(=O)=O)nc3c2)ccc1=O (centres unmarked) [Example B390, 2-{5-[1-(2-hydroxy-2-methylpropyl)-6-oxo-1,6-dihydropyridin-3-yl]-1,3-benzothiazol-2-yl}-2-methanesulfonyl-N-(2-sulfamoylethyl)acetamide] | 10000 | 3.5 |  | 
9 | CC(C)(C)OC(=O)c1ccc2sc(C(C(=O)NCCS(N)(=O)=O)S(C)(=O)=O)nc2c1 (centres unmarked) [Example B391, tert-Butyl 2-(1-(methylsulfonyl)-2-oxo-2-((2-sulfamoylethyl)amino)ethyl)-1,3-benzothiazole-5-carboxylate] |  |  | 53.4 | 25
10 | CS(=O)(=O)C(C(=O)NCCS(N)(=O)=O)c1nc2cc(C(=O)O)ccc2s1 (centres unmarked) [Example B392, 2-(1-(Methylsulfonyl)-2-oxo-2-((2-sulfamoylethyl)amino)ethyl)benzo[d]thiazole-5-carboxylic acid] |  |  | 92.7 | 3.1
11 | CS(=O)(=O)C(C(=O)NCCS(N)(=O)=O)c1nc2cc(C(=O)N3CC(F)(F)C3)ccc2s1 (centres unmarked) [Example B393, 2-[5-(3,3-difluoroazetidine-1-carbonyl)-1,3-benzothiazol-2-yl]-2-methanesulfonyl-N-(2-sulfamoylethyl)acetamide] | 5750 | 50.3 |  | 
12 | CS(=O)(=O)C(C(=O)NCCS(N)(=O)=O)c1nc2cc(C(=O)NCCc3ccc(F)cc3)ccc2s1 (centres unmarked) [Example B394, N-[2-(4-fluorophenyl)ethyl]-2-{methanesulfonyl[(2-sulfa-moylethyl)carbamoyl]meth-yl}-1,3-benzothiazole-5-carboxamide] | 1600 | 37.4 |  | 
13 | CS(=O)(=O)C(C(=O)NCCS(N)(=O)=O)c1nc2ccc(-c3nnc(-c4ccc(F)cc4)o3)cc2s1 (centres unmarked) [Example B395, 2-(6-(5-(4-Fluorophenyl)-1,3,4-oxadiazol-2-yl)benzo[d]thiazol-2-yl)-2-(methylsulfonyl)-N-(2-sulfamoylethyl)acetamide] |  |  | 275 | 148

Now from value to compound:

Row | IC50 [1] [nM] | IC50 [2] [nM] | IC50 [1, 3] [nM] | IC50 [2, 4] [nM] | SMILES
14 | 2.1 | 17.2 |  |  | NS(=O)(=O)CCNC(=O)C(c1nc2ccc(-c3ccccc3F)cc2s1)S(=O)(=O)Cc1ccc(OC(F)(F)F)cc1 (centres unmarked) [Example B365, 2-[6-(2-fluorophenyl)-1,3-benzothiazol-2-yl]-N-(2-sulfamoylethyl)-2-{[4-(trifluoromethoxy)phen-yl]methanesulfonyl}a-cetamide]
15 | 219 | 4.4 |  |  | Cn1cc(-c2ccc3nc(C(C(=O)NCCS(N)(=O)=O)S(=O)(=O)Cc4cccc(C(F)(F)F)c4)sc3c2)ccc1=O (centres unmarked) [Example B366, 2-[6-(1-methyl-6-oxo-1,6-dihydropyridin-3-yl)-1,3-benzothiazol-2-yl]-N-(2-sulfamoylethyl)-2-{[3-(trifluoromethyl)phen-yl]methanesulfonyl}a-cetamide]
16 | 15.5 | 1.8 |  |  | COCCOc1ccc(-c2ccc3sc(C(C(=O)NCCS(N)(=O)=O)S(C)(=O)=O)nc3c2)cc1 (centres unmarked) [Example B370, 2-methanesulfonyl-2-{5-[4-(2-methoxyethoxy)phen-yl]-1,3-benzothiazol-2-yl}-N-(2-sulfamoylethyl)a-cetamide]
17 | 96.3 | 3 |  |  | CC(=O)Nc1ccc(-c2ccc3sc(C(C(=O)NCCS(N)(=O)=O)S(C)(=O)=O)nc3c2)cc1 (centres unmarked) [Example B371, 2-[5-(4-acetamidophenyl)-1,3-benzothiazol-2-yl]-2-methanesulfonyl-N-(2-sulfamoylethyl)acetamide]
18 | 124 | 2.5 |  |  | CS(=O)(=O)C(C(=O)NCCS(N)(=O)=O)c1nc2cc(-c3ccc(F)nc3)ccc2s1 (centres unmarked) [Example B372, 2-[5-(6-fluoropyridin-3-yl)-1,3-benzothiazol-2-yl]-2-methanesulfonyl-N-(2-sulfamoylethyl)acetamide]
19 | 45.7 | 3.3 |  |  | CS(=O)(=O)C(C(=O)NCCS(N)(=O)=O)c1nc2cc(-c3cnoc3)ccc2s1 (centres unmarked) [Example B373, 2-methanesulfonyl-2-[5-(1,2-oxazol-4-yl)-1,3-benzothiazol-2-yl]-N-(2-sulfamoylethyl)acetamide]
20 | 23.7 | 0.8 |  |  | CS(=O)(=O)C(C(=O)NCCS(N)(=O)=O)c1nc2cc(-c3ncccn3)ccc2s1 (centres unmarked) [Example B374, 2-methanesulfonyl-2-[5-(pyrimidin-2-yl)-1,3-benzothiazol-2-yl]-N-(2-sulfamoylethyl)acetamide]
21 | 6.7 | 0.7 |  |  | COCc1ccc(-c2ccc3sc(C(C(=O)NCCS(N)(=O)=O)S(C)(=O)=O)nc3c2)cc1 (centres unmarked) [Example B378, 2-methanesulfonyl-2-{5-[4-(methoxymethyl)phen-yl]-1,3-benzothiazol-2-yl}-N-(2-sulfamoylethyl)acetamide]
22 | 83.7 | 0.5 |  |  | CC(=O)Nc1cccc(-c2ccc3sc(C(C(=O)NCCS(N)(=O)=O)S(C)(=O)=O)nc3c2)c1 (centres unmarked) [Example B379, 2-[5-(3-acetamidophenyl)-1,3-benzothiazol-2-yl]-2-methanesulfonyl-N-(2-sulfamoylethyl)acetamide]
23 | 18.5 | 2 |  |  | CS(=O)(=O)C(C(=O)NCCS(N)(=O)=O)c1nc2cc(-c3cccc(F)n3)ccc2s1 (centres unmarked) [Example B380, 2-[5-(6-fluoropyridin-2-yl)-1,3-benzothiazol-2-yl]-2-methanesulfonyl-N-(2-sulfamoylethyl)acetamide]
24 | 40.2 | 1.1 |  |  | CS(=O)(=O)C(C(=O)NCCS(N)(=O)=O)c1nc2cc(-c3ccncc3F)ccc2s1 (centres unmarked) [Example B381, 2-[5-(3-fluoropyridin-4-yl)-1,3-benzothiazol-2-yl]-2-methanesulfonyl-N-(2-sulfamoylethyl)acetamide]
25 | 36.5 | 3.1 |  |  | CC(C)(C)OC(=O)N1CC=C(c2ccc3sc(C(C(=O)NCCS(N)(=O)=O)S(C)(=O)=O)nc3c2)CC1 (centres unmarked) [Example B382, tert-butyl 4-(2-{methanesulfonyl[(2-sulfa-moylethyl)carbamoyl]meth-yl}-1,3-benzothiazol-5-yl)-1,2,3,6-tetrahydropyridine-1-carboxylate]
26 | 13 | 0.7 |  |  | CS(=O)(=O)C(C(=O)NCCS(N)(=O)=O)c1nc2cc(-c3cccnc3F)ccc2s1 (centres unmarked) [Example B383, 2-[5-(2-fluoropyridin-3-yl)-1,3-benzothiazol-2-yl]-2-methanesulfonyl-N-(2-sulfamoylethyl)acetamide]
27 | 20.5 | 3.5 |  |  | CS(=O)(=O)C(C(=O)NCCS(N)(=O)=O)c1nc2cc(-c3ccc(F)nc3F)ccc2s1 (centres unmarked) [Example B385, 2-[5-(2,6-difluoropyridin-3-yl)-1,3-benzothiazol-2-yl]-2-methanesulfonyl-N-(2-sulfamoylethyl)a-cetamide]
28 | 14.3 | 17.1 |  |  | CC(C)(C)OC(=O)c1ccc(-c2ccc3nc(C(C(=O)N[C@@H]4CCNC4=O)S(=O)(=O)Cc4ccccc4)sc3c2)cc1 (stereo partly drawn) [Example B386, tert-butyl 4-[2-({[(3R)-2-oxopyrrolidin-3-yl]carbamoyl}(phenyl-methanesulfonyl)methyl)-1,3-benzothiazol-6-yl]benzoate]
